{"source": "patent US20110039787A1", "about": "“COMPOSITIONS, KITS AND METHODS FOR TREATING BENIGN PROSTATE HYPERPLASIA” (priority 2009, published 2011)", "key": {"testosterone": {"system": "testosterone", "assay": "Serum testosterone concentration-time profile (LC-MS/MS)", "assay_type": "in vivo, men", "details": "for Number of patients with testosterone below the castration level 0.5 ng/mL at one or more time-points / Percentage of patients with testosterone below the castration level 0.5 ng/mL at one or more time-points: up to Day 42"}, "prostate volume": {"system": "prostate volume", "assay": "Prostate volume by transrectal ultrasound", "assay_type": "in vivo, men", "method": "For each patient, the following parameters were measured or assessed (using the methods discussed below), at time points of screening day 0 (e.g., −7 days, “baseline”), day 14, day 28, and day 42:\n2) Efficacy Endpoints—the measured Peak Urinary Flow, Post-void Residual Volume, and Prostate Volume.\nAfter the initial 6-week treatment period of the exploratory study had been completed, a 12-month follow-up period looking at long-term efficacy commenced. Interim data of the main efficacy variables (IPSS, IPSS Global QoL, prostate volume, urinary flow, and post-void residual volume—measured as set out below) after 6 months' follow-up are also presented herein at Tables 1, 2, 3, and FIG. 1b. FIG. 1b also includes IPSS data at 9 and 12 months.\nThe prostate volume was measured by transrectal ultrasound with the patient in a lateral position. The prostatic gland was sonicated from two directions perpendicular to one another resulting in three cursor positions set by the urologist. The volume was calculated automatically. The investigations were performed by urologists by methods known in the art."}, "[1]": {"details": "16+16 mg, after the second administration"}, "[2]": {"details": "32+32 mg, after the first administration"}, "[3]": {"details": "32+32 mg, after the second administration"}, "[4]": {"details": "first dose of the 32+32 mg combined with the single dose 32 mg data"}, "[5]": {"details": "16+16 mg, Month 6 follow-up, n=6"}, "[6]": {"details": "32+32 mg, Month 6 follow-up, n=7"}}, "note": "Square brackets hold non-standard residues; d marks the D form. Peptide text beside a SMILES is read from it. * marks the point of attachment. dPhe(4-NHCONH2) = NC(=O)Nc1ccc(C[C@@H](N)C(=O)O)cc1; Dihydroorotyl(S) = O=C1C[C@@H](C(=O)*)NC(=O)N1; dPhe(4-Cl) = N[C@H](Cc1ccc(Cl)cc1)C(=O)O; Phe(4-NH2) = Nc1ccc(C[C@H](N)C(=O)O)cc1; d2Nal = N[C@H](Cc1ccc2ccccc2c1)C(=O)O; Lys(iPr) = CC(C)NCCCC[C@H](N)C(=O)O; d3Pal = N[C@H](Cc1cccnc1)C(=O)O", "data": [{"smiles": "CC(=O)N[C@H](Cc1ccc2ccccc2c1)C(=O)N[C@H](Cc1ccc(Cl)cc1)C(=O)N[C@H](Cc1cccnc1)C(=O)N[C@@H](CO)C(=O)N[C@@H](Cc1ccc(NC(=O)[C@@H]2CC(=O)NC(=O)N2)cc1)C(=O)N[C@H](Cc1ccc(NC(N)=O)cc1)C(=O)N[C@@H](CC(C)C)C(=O)N[C@@H](CCCCNC(C)C)C(=O)N1CCC[C@H]1C(=O)N[C@H](C)C(N)=O", "note": "[Degarelix, D-Alaninamide, N-acetyl-3-(2-naphthalenyl)-D-alanyl-4-chloro-D-phenylalanyl-3-(3-pyridinyl)-D-alanyl-L-seryl-4-[[[(4S)-hexahydro-2,6-dioxo-4-pyrimidinyl]carbonyl]amino]-L-phenylalanyl-4-[(aminocarbonyl)amino]-D-phenylalanyl-L leucyl-N6-(1-methylethyl)-L-lysyl-L-prolyl] (Ac-[d2Nal][dPhe(4-Cl)][d3Pal]S[Phe(4-NH2)](Dihydroorotyl(S))[dPhe(4-NHCONH2)]L[Lys(iPr)]P[dA]-NH2)", "values": [{"measurement": "Mean minimal value of testosterone (Cnadir)", "setting": "testosterone; [1]", "result": 2.0, "unit": "ng/mL"}, {"measurement": "Mean time-point (tnadir) to Cnadir of testosterone", "setting": "testosterone; [1]", "result": 4.0, "unit": "days"}, {"measurement": "Mean area of testosterone concentrations below 0.5 ng/mL", "setting": "testosterone; 16+16 mg, range 0.0-0.0", "result": 0.0, "unit": "ng·days/mL"}, {"measurement": "Number of patients with testosterone below the castration level 0.5 ng/mL at one or more time-points", "setting": "testosterone; 16+16 mg", "result": 2, "unit": "patients"}, {"measurement": "Percentage of patients with testosterone below the castration level 0.5 ng/mL at one or more time-points", "setting": "testosterone; 16+16 mg", "result": 15, "unit": "%"}, {"measurement": "Greatest change from baseline in mean testosterone", "setting": "testosterone; 32+32 mg", "result": -4.1, "unit": "ng/mL"}, {"measurement": "Lowest mean testosterone level", "setting": "testosterone; 32+32 mg, Day 17 (after second administration), SD 0.3", "result": 0.4, "unit": "ng/mL"}, {"measurement": "Subjects that had not regained testosterone levels >0.5 ng/mL at Day 42", "setting": "testosterone; 32+32 mg, Day 42", "result": "Three"}, {"measurement": "Mean testosterone level on Day 42", "setting": "testosterone; 32+32 mg, Day 42 (4.5 at baseline)", "result": 2.7, "unit": "ng/mL"}, {"measurement": "Mean time for first return of testosterone to baseline interval after the first administration", "setting": "testosterone; 32+32 mg, SD=2.6", "result": 9.1, "unit": "days"}, {"measurement": "Mean time to second return of testosterone to baseline interval (after the second administration)", "setting": "testosterone; 32+32 mg, SD=83.5, calculated, not measured values", "result": 64.2, "unit": "days"}, {"measurement": "Mean minimal value of testosterone (Cnadir)", "setting": "testosterone; [2]", "result": 0.6, "unit": "ng/mL"}, {"measurement": "Mean time-point (tnadir) to Cnadir of testosterone", "setting": "testosterone; [2]", "result": 3.2, "unit": "days"}, {"measurement": "Mean minimal value of testosterone (Cnadir)", "setting": "testosterone; [3]", "result": 0.4, "unit": "ng/mL"}, {"measurement": "Mean time-point (tnadir) to Cnadir of testosterone", "setting": "testosterone; [3]", "result": 4.3, "unit": "days"}, {"measurement": "Mean area of testosterone concentrations below 0.5 ng/mL", "setting": "testosterone; 32+32 mg, range 0.0-15.3", "result": 2.8, "unit": "ng·days/mL"}, {"measurement": "Number of patients with testosterone below the castration level 0.5 ng/mL at one or more time-points", "setting": "testosterone; 32+32 mg", "result": 9, "unit": "patients"}, {"measurement": "Percentage of patients with testosterone below the castration level 0.5 ng/mL at one or more time-points", "setting": "testosterone; 32+32 mg", "result": 75, "unit": "%"}, {"measurement": "Number of patients castrated (testosterone below 0.5 ng/mL), for generally 2-4 days", "setting": "testosterone; [4]", "result": 8, "unit": "patients"}, {"measurement": "Percentage of patients castrated (testosterone below 0.5 ng/mL), for generally 2-4 days", "setting": "testosterone; [4]", "result": 33, "unit": "%"}, {"measurement": "Larger area below and longer time to return to the testosterone baseline interval", "setting": "testosterone; groups given a total of 64 mg compared to the total dose 32 mg", "result": "more than 2 fold"}, {"measurement": "Mean (SD) Prostate Volume", "setting": "prostate volume; 32 mg, Day 42, N=12", "result": "34.8 (14.2) mL"}, {"measurement": "Prostate Volume, Change from Baseline, mean (SD)", "setting": "prostate volume; 32 mg, Day 42, N=12", "result": "−13.9 (14.7) mL"}, {"measurement": "Prostate Volume, Percentage Change from Baseline, mean (SD)", "setting": "prostate volume; 32 mg, Day 42, N=12", "result": "−25.1 (18.0) %"}, {"measurement": "Mean (SD) Prostate Volume", "setting": "prostate volume; 32 mg, Month 6 follow-up, n=7", "result": "34.3 (13.9) mL"}, {"measurement": "Prostate Volume, Change from Baseline, mean (SD)", "setting": "prostate volume; 32 mg, Month 6 follow-up, n=7", "result": "−11.6 (5.1) mL"}, {"measurement": "Prostate Volume, Percentage Change from Baseline, mean (SD)", "setting": "prostate volume; 32 mg, Month 6 follow-up, n=7", "result": "−25.6 (8.0) %"}, {"measurement": "Mean (SD) Prostate Volume", "setting": "prostate volume; 64 mg, Day 42, N=13", "result": "30.6 (10.5) mL"}, {"measurement": "Prostate Volume, Change from Baseline, mean (SD)", "setting": "prostate volume; 64 mg, Day 42, N=13", "result": "−8.2 (10.2) mL"}, {"measurement": "Prostate Volume, Percentage Change from Baseline, mean (SD)", "setting": "prostate volume; 64 mg, Day 42, N=13", "result": "−19.7 (23.2) %"}, {"measurement": "Mean (SD) Prostate Volume", "setting": "prostate volume; 64 mg, Month 6 follow-up, n=4", "result": "29.0 (3.4) mL"}, {"measurement": "Prostate Volume, Change from Baseline, mean (SD)", "setting": "prostate volume; 64 mg, Month 6 follow-up, n=4", "result": "−9.7 (10.4) mL"}, {"measurement": "Prostate Volume, Percentage Change from Baseline, mean (SD)", "setting": "prostate volume; 64 mg, Month 6 follow-up, n=4", "result": "−21.5 (20.6) %"}, {"measurement": "Mean (SD) Prostate Volume", "setting": "prostate volume; 16+16 mg, Day 42, N=13", "result": "34.5 (11.0) mL"}, {"measurement": "Prostate Volume, Change from Baseline, mean (SD)", "setting": "prostate volume; 16+16 mg, Day 42, N=13", "result": "−7.5 (7.7) mL"}, {"measurement": "Prostate Volume, Percentage Change from Baseline, mean (SD)", "setting": "prostate volume; 16+16 mg, Day 42, N=13", "result": "−17.0 (16.7) %"}, {"measurement": "Mean (SD) Prostate Volume", "setting": "prostate volume; [5]", "result": "29.6 (10.4) mL"}, {"measurement": "Prostate Volume, Change from Baseline, mean (SD)", "setting": "prostate volume; [5]", "result": "−11.2 (4.4) mL"}, {"measurement": "Prostate Volume, Percentage Change from Baseline, mean (SD)", "setting": "prostate volume; [5]", "result": "−27.8 (8.7) %"}, {"measurement": "Mean (SD) Prostate Volume", "setting": "prostate volume; 32+32 mg, Day 42, N=12", "result": "28.7 (8.2) mL"}, {"measurement": "Prostate Volume, Change from Baseline, mean (SD)", "setting": "prostate volume; 32+32 mg, Day 42, N=12", "result": "−9.4 (9.3) mL"}, {"measurement": "Prostate Volume, Percentage Change from Baseline, mean (SD)", "setting": "prostate volume; 32+32 mg, Day 42, N=12", "result": "−23.5 (20.9) %"}, {"measurement": "Mean (SD) Prostate Volume", "setting": "prostate volume; [6]", "result": "26.5 (6.0) mL"}, {"measurement": "Prostate Volume, Change from Baseline, mean (SD)", "setting": "prostate volume; [6]", "result": "−10.6 (8.8) mL"}, {"measurement": "Prostate Volume, Percentage Change from Baseline, mean (SD)", "setting": "prostate volume; [6]", "result": "−27.1 (17.3) %"}]}]}
